The test system of test [1] is Staphylococcus hominis. The test can be described thus: growth of Staphylococcus hominis after treatment with 0.5 mM peptide. In kind it is cell-based. The settings on record: 24 hours, 37° C. under agitation, FIG. 6. Here is the method:
(§1) Extended fragments of the LFKFFK (SEQ ID NO: 1) sequence were derived from Staphylococcus aureus (PSMα3 derivatives) in order to determine the minimum peptide length critical for the antibacterial activity. […] Therefore, the antibacterial activity of its fragments comprising SEQ ID NO: 1, as listed in Table 1, were examined on the growth of Staphylococcus epidermidis ATCC 12228 cells, Staphylococcus hominis, and Lactobacillus casei after 24 hours from treatment with 0.5 mM peptide at 37° C. under agitation compared to control (bacterial growth w/o peptide). Lactobacillus casei are probiotic bacteria. Therefore, the peptides listed in Table 1 were also tested against bacteria of the human flora.

Test [2] concerns Staphylococcus hominis. Put plainly: minimal inhibition concentration (MIC) against Staphylococcus hominis. In kind it is cell-based. To be noted: O.D600 nm after 24 hours incubation at 37° C. with agitation, FIG. 4. On the procedure:
N-terminal acetylation of peptides is known to enhance fibril formation. Therefore, the bacterial growth of Staphylococcus hominis was tested by capped peptides of SEQ ID NO: 1 and 2. […] The lowest concentration at which no growth was observed is determined as the MIC. The experiment was performed in triplicates.

Test [3] relates to Staphylococcus epidermidis ATCC 12228. The test can be described thus: antibacterial activity (MIC) of fragments against Staphylococcus epidermidis ATCC 12228. In kind it is cell-based. To be noted: FIG. 5. Here is the method:
as §1

Another test deals with Micrococcus luteus. The test can be described thus: diameter of the growth inhibition of Micrococcus luteus cells. In kind it is cell-based. The settings on record: for growth inhibition of Micrococcus luteus: FIG. 2A; for diameter of the growth inhibition of Micrococcus luteus: various concentrations. The text has this:
The anti-bacterial activity of LFKFFK peptide (SEQ ID NO: 1), KLFKFFK peptide (SEQ ID NO: 3) and control peptides with a hydrophobic/cationic amino-acid composition, IIKVIK (SEQ ID NO: 10) and IIKIIK (SEQ ID NO: 11), was examined by determining the diameter of the growth inhibition of Micrococcus luteus cells.

In a further test the test system is bacteria. The settings on record: native full-length 22-residue peptide, cited from earlier work.

Read-outs that look alike come from different tables or passages of the source.

In the case of “Ac-KLFKFFKD-NH2 (listed as Staphylococcus aureus) [compound 3]”, the “antibacterial effect against S. hominis (growth compared to control w/o peptide)” value in the test on Staphylococcus hominis [1] is listed as “partially active”.

On to “Ac-KLFKFFK-NH2 (listed as Staphylococcus aureus) [compound 2]”, for which, in the test on Staphylococcus hominis [2], the MIC was 15. The “antibacterial effect against S. hominis (growth compared to control w/o peptide)” value in the test with Staphylococcus hominis [1] is on record as “partially active”.

Consider “Ac-VAKLFKFFKDLLGKFL-NH2 (listed as Staphylococcus aureus) [peptide 8]”, for which the “anti-bacterial activity (MIC) against Staphylococcus epidermidis ATCC 12228” value (shortened to “anti-bacterial activity (MIC)”) in test [3] is “fails to exhibit any antibacterial activity”.

Take “KLFKFFK (listed as Staphylococcus aureus)”: in the test on Micrococcus luteus, the “growth inhibition of Micrococcus luteus” value is “inhibit the growth”. Besides, in the test with Micrococcus luteus (FIG. 2B), the “toxicity to Micrococcus Luteus compared with LFKFFK” value is listed as “even more toxic” and the “diameter of the growth inhibition of Micrococcus luteus” value is reported as “dose-dependent effect”.

As for “LFKFFK (listed as Staphylococcus aureus) [fragment of PSMalpha3]”, the “growth inhibition of Micrococcus luteus” value with Micrococcus luteus was “inhibit the growth”. For the same substance, the “diameter of the growth inhibition of Micrococcus luteus” value in the test on Micrococcus luteus (FIG. 2B) is on record as “dose-dependent effect”.

With “Ac-KLFKFFKDLL-NH2 (listed as Staphylococcus aureus) [compound 5]”, in test [3], the “anti-bacterial activity (MIC)” value is given as “better anti-bacterial activity”.

As for “Ac-KLFKFFKDLLG-NH2 (listed as Staphylococcus aureus) [compound 6]”, in test [3], the “anti-bacterial activity (MIC)” value is listed as “better anti-bacterial activity”.

MEFVAKLFKFFKDLLGKFLGNN [PSMalpha3]: the antibacterial activity entry in the test on bacteria is given as “lacks antibacterial activity”; with bacteria (listed as SEQ ID NO: 2) it was “lack an antibacterial activity”.

“Ac-LFKFFK-NH2 (listed as Staphylococcus aureus) [compound 1]”: the “antibacterial effect against S. hominis (growth compared to control w/o peptide)” value in the test with Staphylococcus hominis [1] was “partially active”.
